In article PMC9476706, “Integrating pharmacokinetics and network analysis to investigate the mechanism of Moutan Cortex in blood-heat and blood stasis syndrome” (Chinese Medicine, 2022):

Key:
[1] = Pharmacokinetic study of nine absorbed components in rat serum after oral RMC extract (UHPLC-DAD); conditions: for AUC / Cmax / MRT / half-life / Tmax: male, Sprague-Dawley, rat, serum, po, 10 mL/kg, oral RMC extract 10 mL/kg (equal to 6 g/mL of RMC) once a day for 7 days, n = 6; for time after which the compound was not detected: BHS-RMC rats;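 for all read-outs here: BHS model made by subcutaneous yeast suspension then two adrenaline injections with ice-water immersion, normal rats given saline instead, serum analytes quantified by UHPLC-DAD at 254 nm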
Method: Twenty-four male Sprague–Dawley rats (weighing 300 ± 20 g) were purchased from Animal Experiment Center, Guangdong Academy of Medical Sciences (Certificate no. SCXK2013-0002). The rats were kept in an environmentally controlled breeding room at a temperature of 22 ± 2 °C and a relative humidity of 55 ± 10% for 1 week before starting the experiments. They were fed with standard laboratory food and water. Both the animal’s care and the study protocol were conducted according to the National Institutes of Health Guide for the Care and Use of Laboratory Animals, and followed the guidelines of the Ethics Committee of Guangdong Pharmaceutical University.
The rats were randomly divided into following four groups: normal groups (Normal groups), BHS model groups (BHS groups), normal group administrated with RMC extraction (N-RMC group), BHS group administrated with RMC extraction (BHS-RMC group), respectively. N-RMC group and BHS-RMC group rats were respectively orally administrated with RMC extraction (equal to 6 g/mL of RMC) for continuous 7 days at a dose of 10 mL/kg, once a day, 1 hour after the sixth day of administration. The rats in BHS groups and BHS-RMC group were subcutaneously injected with 10% aqueous suspension of yeast (10 mL/kg) and then subcutaneously injected with 0.1 mg/mL adrenaline hydrochloride solution twice (at a dose of 0.8 mL/kg, 4 h apart) while body temperature remained relatively steady high. Those rats were soaked in ice-water for 5 min keeping their heads outside surface between two subcutaneous injections of adrenaline hydrochloride solution [39, 40]. At the same time, the normal groups and N-RMC group rats were injected with the same dose of saline (10 mL/kg) subcutaneously. All rats were fasted for 12 h but free for water before taking the blood. On the seventh day, 0.3 mL blood samples were collected from fossa orbitalis vein at the time point of 0.083, 0.25, 0.5, 0.75, 1, 2, 3, 4, 6, 8, 10, 12 and 24 h after oral administration. All blood samples were immediately centrifuged at 13,680 (× g) for 10 min at 4 °C and the serum samples were obtained and stored at −80 °C until analysis.
Firstly, 100 μL serum was spiked with 10 μL IS working solution to mix evenly, then 1 mL methanol was added to protein precipitation, and centrifuged at 1520 (× g) for 10 min at 4 °C. Secondly, the supernatant was collected with a clean tube carefully and filtered through 0.22 μm microporous filter head. Thirdly, the filtrate was evaporated to dryness under a stream of nitrogen at 40 °C. Finally, the residue was dissolved in 100 μL methanol and 10 μL of aliquot was injected into UHPLC-DAD system for analysis.
The chromatography experiment was carried out using UPLC system (Thermo Fisher Scientific, USA). Chromatographic conditions were according to the paper published by our research group [37]. Column: Acquity UPLC® BEH Shield RP18 Column (2.1 mm × 100 mm, 1.7 μm, Waters, USA). The column temperature was maintained at 30 °C. Mobile phase: Acetonitrile (A) and 0.1% (v/v) formic acid in water (B). The gradient conditions: 0–10 min, 5–15% A; 10–20 min, 15–35% A; 20–30 min, 35–95% A; 30–32 min, 95% A. The samples were kept at 4 °C in the auto-sampler. Flow rate and sample size, 0.2 mL/min and 2 μL; column temperature and detection wavelength, 30 °C and 254 nm.
The concentrations of nine components of all samples were processed by PKSolver pharmacokinetics software. Statistical comparisons among groups were performed with GraphPad Prism 8 using a One-Way ANOVA analysis. Data expressed as mean ± SD and a p value ≤ 0.05 was considered to be statistically significant.

[2] = test system: APTT; set-up: method as in doi:10.5246/jcps.2018.09.062; conditions: cited from earlier work
[3] = test system: F2; experiment: F2 expression in TNF-α induced HUVECs (ELISA, RT-qPCR); format: cell-based, Human; conditions: HUVECs + 25 ng/mL TNF-α, 8 h, versus model group; for F2 protein expression: paeonol 50, paeoniflorin 500, quercetin 1, oxypaeoniflorin 500 μg/mL
Method: (§1) After three or four passages, the HUVECs were digested with 0.25% trypsin and seeded in a 6-well plate with a density of 1 × 10^5 cells/mL for ELISA analysis and RT-qPCR. […] Afterwards, take the supernatant and measure according to the ELISA kit, and detect the OD value at the wavelength of 450. […] ChamQTMUniversalSYBR qPCR Master Mix (Vazyme Biotech Co., Ltd, Q711-02) was performed on a Real-time PCR System.

[4] = test system: APTT, PT and TT; experiment: Coagulation test (APTT, PT, TT) in rabbit plasma; conditions: for APTT: 10 μL solution, paeoniflorin 250, oxypaeoniflorin 500, quercetin 1, paeonol 50 μg/mL, blank 13.63 ± 0.49, n = 3; for effect on PT compared with blank / effect on TT compared with blank / effect on prolonging APTT compared with blank: in words
Method: New Zealand white rabbits, after being fasted but with free access to water for 8 h, were anesthetized by intraperitoneal injection of 10.0% chloral hydrate at 0.3 mL/100 g. The blood collected from the carotid artery was anticoagulated with 3.8% sodium citrate (blood and dosage volume ratio of 9:1), and transferred to a vacuum blood-collection tube, which was then slowly inverted and mixed for 3 to 4 times, and centrifuged at 860 (× g) for 10 min to obtain the supernatant. […] Whereafter, 10 μL of monomer solution was added under the kit instructions to determine APTT, PT and TT using coagulation method.

[5] = test system: MAPK10; experiment: MAPK10 mRNA expression in TNF-α induced HUVECs (RT-qPCR); format: cell-based, Human; conditions: HUVECs + 25 ng/mL TNF-α, 8 h, paeonol 50, paeoniflorin 500, quercetin 1, oxypaeoniflorin 500 μg/mL, versus model group
Method: as §1

[6] = test system: F7; experiment: F7 expression in TNF-α induced HUVECs (ELISA, RT-qPCR); format: cell-based, Human; conditions: HUVECs + 25 ng/mL TNF-α, 8 h, versus model group; for F7 protein expression: paeonol 50, paeoniflorin 500, quercetin 1, oxypaeoniflorin 500 μg/mL
Method: as §1

[7] = test system: F10; experiment: F10 expression in TNF-α induced HUVECs (ELISA, RT-qPCR); format: cell-based, Human; conditions: HUVECs + 25 ng/mL TNF-α, 8 h; paeonol 50, paeoniflorin 500, quercetin 1, oxypaeoniflorin 500 μg/mL; versus model group
Method: as §1

[8] = test system: AKT; experiment: AKT expression in TNF-α induced HUVECs (RT-qPCR); format: cell-based, Human; conditions: HUVECs + 25 ng/mL TNF-α, 8 h, oxypaeoniflorin 500 μg/mL, versus model group
Method: as §1

[9] = BHS-RMC versus N-RMC rats, oral RMC extract
[10] = T1/2, BHS-RMC group (BHS model rats)
[11] = T1/2, N-RMC group (normal rats)

Row | Compound | Cmax increase in BHS-RMC over N-RMC [1, 9] [%] | AUC ([1]; BHS-RMC group (BHS model rats)) [µg·h/mL] | AUC ([1]; N-RMC group (normal rats)) [µg·h/mL] | Cmax ([1]; BHS-RMC group (BHS model rats)) [µg/mL] | Cmax ([1]; N-RMC group (normal rats)) [µg/mL] | MRT ([1]; BHS-RMC group (BHS model rats)) [h] | MRT ([1]; N-RMC group (normal rats)) [h] | half-life [1, 10] [h] | half-life [1, 11] [h] | Tmax ([1]; BHS-RMC group (BHS model rats)) [h] | Tmax ([1]; N-RMC group (normal rats)) [h] | F2 protein expression [3] | APTT [4] [s] | effect on PT compared with blank [4] | effect on TT compared with blank [4] | effect on prolonging APTT compared with blank [4] | MAPK10 mRNA expression [5] | F7 protein expression [6] | F10 protein expression [7] | further results
1 | Cc1oc2c(O)cccc2c(=O)c1O [3,8-Dihydroxy-2-methylchromone, 3,8-dihydroxy-2-methylchromone] | 16 | 757 ± 8.72 | 660 ± 29.9 | 134 ± 3.26 | 116 ± 2.12 | 14.1 ± 1.07 | 6.9 ± 0.68 | 19 ± 1.78 | 4.73 ± 0.29 | 0.75 | 0.75 | – | – | – | – | – | – | – | – | effect on APTT [2]: significantly extend
2 | O=Cc1ccc(CO)o1 [5-HMF, 5-hydroxymethylfurfural] | – | 741 ± 20.3 | 1564 ± 4.63 | 111 ± 7.25 | 413.2 ± 2.01 | 7.47 ± 0.48 | 4.55 ± 0.03 | 7.33 ± 2.1 | 3.2 ± 0.03 | 0.75 | 3 | – | – | – | – | – | – | – | – | –
3 | O=C(O)c1ccccc1 [Benzoic acid, benzoic acid] | 49 | 2320 ± 71.3 | 1880 ± 217 | 213 ± 5.26 | 144 ± 4.48 | 13.3 ± 0.79 | 17 ± 2.76 | – | – | 3 | 4 | – | – | – | – | – | – | – | – | –
4 | O=C(O)c1cc(O)c(O)c(O)c1 [Gallic acid, gallic acid] | 42 | 1070 ± 72.9 | 1020 ± 26.6 | 180 ± 11.1 | 127 ± 2.9 | 10 ± 0.96 | 17.3 ± 0.8 | 6.33 ± 0.45 | 10.8 ± 0.87 | 1 | – | – | – | – | – | – | – | – | – | AUC increase in BHS-RMC over N-RMC [1, 9]: 5%
5 | COC(=O)c1ccc(O)cc1 [Methylparaben, methyl paraben] | – | 39.9 ± 1.34 | 22.8 ± 1.34 | 2.16 ± 0.11 | 6.35 ± 0.53 | 27.1 ± 1.16 | 7.91 ± 0.56 | 17.9 ± 0.84 | 4.93 ± 0.23 | 1 | 0.75 | – | – | – | – | – | – | – | – | –
6 | C[C@@]12C[C@@]3(O)O[C@@H](O1)[C@]1(COC(=O)c4ccccc4)[C@H]3C[C@@]12O[C@@H]1O[C@H](CO)[C@@H](O)[C@H](O)[C@H]1O [Paeoniflorin, paeoniflorin] | – | 298 ± 7.6 | 1450 ± 62.3 | 84.2 ± 1.99 | 201.6 ± 1.86 | 5.06 ± 0.22 | 15.5 ± 0.94 | 3.6 ± 0.31 | 9.75 ± 0.47 | 0.75 | – | significantly declined | 15.07 ± 0.06 | no significant difference | tendency of prolonging | significant effect | significant decrease | significantly declined | significantly declined | time after which the compound was not detected ([1]; oral RMC extract): 12 h
7 | COc1ccc(C(C)=O)c(O)c1 [Paeonol, paeonol] | – | 45.5 ± 0.83 | 107 ± 1.23 | 10.4 ± 0.23 | 11.8 ± 0.13 | 4.63 ± 0.12 | 12.1 ± 0.17 | 4.37 ± 0.15 | 7.84 ± 0.08 | 0.75 | 0.75 | significantly declined | 17.23 ± 0.35 | no significant difference | tendency of prolonging | significant effect | significant decrease | significantly declined | significantly declined | F2 mRNA expression ([3]; paeonol 50 μg/mL, RT-qPCR): no effects; time after which the compound was not detected ([1]; oral RMC extract): 8 h; shape of plasma concentration-time profile ([1]; oral RMC extract, both normal and model rats): bimodal (double peak) phenomenon; F7 mRNA expression ([6]; paeonol 50 μg/mL, RT-qPCR): no effects
8 | O=c1c(O)c(-c2ccc(O)c(O)c2)oc2cc(O)cc(O)c12 [Quercetin, quercetin] | 15 | 10000 | 7340 ± 166 | 739.9 ± 4.17 | 643 ± 19.8 | 20.4 ± 0.66 | 16.6 ± 0.56 | 15.5 ± 0.54 | 9.97 ± 0.35 | 4 | 4 | significantly declined | 15.2 ± 0.387 | no significant difference | tendency of prolonging | significant effect | significant decrease | significantly declined | significantly declined | –
9 | oxypaeoniflorin | – | – | – | – | – | – | – | – | – | – | – | – | 15.63 ± 0.45 | no significant difference | tendency of prolonging | significant effect | significant decrease | significantly declined | significantly declined | expression of AKT [8]: could decrease
